According to the supplement of paper PMC10307832:

Key:
Test in all cases: relative viability (nuclei count vs DMSO), 5 days (fraction); higher = more cells survive
Temozolomide + Lapatinib = compound: Cn1nnc2c(C(N)=O)ncn2c1=O [Temozolomide] + CS(=O)(=O)CCNCc1ccc(-c2ccc3ncnc(Nc4ccc(OCc5cccc(F)c5)c(Cl)c4)c3c2)o1 [Lapatinib] (partner 2 µM)
Outline: (§1)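 Nuclei were stained with Hoechst during a one-step fixation (final 0.05% Triton X-100, 1% formaldehyde, 1 ug/ml Hoechst) carried out 5 days after dosing, then counted on 4× images. The cells, lung cancer lines in 1536-well plates, had been dosed by pin tool the day after seeding with one drug alone or a fixed anchor-drug dose plus five library-drug doses (not always all listed) in √10 steps. Relative viability is the nuclei count in treated wells divided by that in vehicle wells, and each value is the median of duplicate plates.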

AZD5582 + Pictilisib = compound: C[C@@H](C(=O)N[C@@H](C1CCCCC1)C(=O)N2CCC[C@H]2C(=O)N[C@@H]3[C@@H](CC4=CC=CC=C34)OCC#CC#CCO[C@@H]5CC6=CC=CC=C6[C@@H]5NC(=O)[C@@H]7CCCN7C(=O)[C@H](C8CCCCC8)NC(=O)[C@H](C)NC)NC [AZD5582] + CS(=O)(=O)N1CCN(Cc2cc3nc(-c4cccc5[nH]ncc45)nc(N4CCOCC4)c3s2)CC1 [Pictilisib] (partner 1 µM)
Outline: as §1

AZD5582 + OSI-027 = compound: C[C@@H](C(=O)N[C@@H](C1CCCCC1)C(=O)N2CCC[C@H]2C(=O)N[C@@H]3[C@@H](CC4=CC=CC=C34)OCC#CC#CCO[C@@H]5CC6=CC=CC=C6[C@@H]5NC(=O)[C@@H]7CCCN7C(=O)[C@H](C8CCCCC8)NC(=O)[C@H](C)NC)NC [AZD5582] + COc1cccc2cc(-c3nc([C@H]4CC[C@H](C(=O)O)CC4)n4ncnc(N)c34)[nH]c12 [OSI-027] (partner 0.5 µM)
Outline: as §1

Temozolomide + Dasatinib = compound: Cn1nnc2c(C(N)=O)ncn2c1=O [Temozolomide] + Cc1nc(Nc2ncc(C(=O)Nc3c(C)cccc3Cl)s2)cc(N2CCN(CCO)CC2)n1 [Dasatinib] (partner 0.075 µM)
Outline: as §1

Cell Line	relative viability (Temozolomide + Lapatinib; first compound 0.2 µM)	relative viability (Temozolomide + Lapatinib; first compound 0.6325 µM)	relative viability (Temozolomide + Lapatinib; first compound 2 µM)	relative viability (Temozolomide + Lapatinib; first compound 6.325 µM)	relative viability (Temozolomide + Lapatinib; first compound 20 µM)	relative viability (AZD5582 + Pictilisib; first compound 0.001581 µM)	relative viability (AZD5582 + Pictilisib; first compound 0.005 µM)	relative viability (AZD5582 + Pictilisib; first compound 0.01581 µM)	relative viability (AZD5582 + Pictilisib; first compound 0.05 µM)	relative viability (AZD5582 + OSI-027; first compound 0.001581 µM)	relative viability (AZD5582 + OSI-027; first compound 0.005 µM)	relative viability (AZD5582 + OSI-027; first compound 0.01581 µM)	relative viability (AZD5582 + OSI-027; first compound 0.05 µM)	relative viability (Temozolomide + Dasatinib; first compound 0.2 µM)	relative viability (Temozolomide + Dasatinib; first compound 0.6325 µM)	relative viability (Temozolomide + Dasatinib; first compound 2 µM)	relative viability (Temozolomide + Dasatinib; first compound 6.325 µM)	relative viability (Temozolomide + Dasatinib; first compound 20 µM)
NCI-H1734	1.12	1.06	1.07	0.955	1.05	0.455	0.514	0.451	0.631	0.691	0.704	0.595	0.594	0.482	0.471	0.396	0.482	0.464
A-427	0.989	1.09	1.14	0.91	0.487	0.567	0.671	0.734	0.587	0.341	0.44	0.414	0.31	0.736	0.669	0.762	0.525	0.356
NCI-H2023	0.894	0.67	0.86	0.773	0.868	0.227	0.288	0.172	0.246	0.286	0.44	0.374	0.368	0.64	0.56	0.616	0.572	0.6
NCI-H1915	0.995	0.935	0.876	0.693	0.376	0.88	0.999	0.824	0.936	0.559	0.64	0.475	0.627	0.348	0.328	0.288	0.215	0.198
LK-2	1.01	1.04	0.796	0.611	0.392	0.474	0.575	0.581	0.603	0.237	0.257	0.197	0.179	0.266	0.323	0.384	0.246	0.27
NCI-H1755	1.11	1.05	0.966	0.979	0.98	0.349	0.424	0.306	0.398	0.567	0.673	0.58	0.659	0.439	0.418	0.427	0.395	0.473
